# Where a name gives a salt, the structure may show the parent alone. Read-outs that look alike come from different tables or passages of the source.
# What was measured:
# [1] = target: T1, PDE3 (cGMP-inhibited), homogenates of human platelets (Homo sapiens, UniProt Q14432); test: Inhibition of PDE isoenzymes: PDE3; assay type: biochemical
# T1 construct: from tissue; host or cells: homogenates of human platelets
# Procedure: (§1) The PDE activity was determined according to Thompson et al. (Adv Cycl Nucl Res 10: 69-92, 1979) with some modifications (Bauer and Schwabe, Naunyn-Schmiedeberg's Arch Pharmacol 311: 193-198, 1980). The test samples contained 20 mM Tris (pH 7.4), 5 mM MgCl2, 0.5 μM CAMP or CGMP, [^3H]cAMP or [^3H]cGMP (about 30 000 cpm/sample), the PDE isoenzyme-specific additives described in greater detail below, the Indicated concentrations of inhibitor and an aliquot of the enzyme solution in a total sample volume of 200 μl. Dilution series of the compounds according to the invention were prepared in DMSO and further diluted in the samples [1:100 (v/v)], to give the desired end concentration of the inhibitors at a DMSO concentration of 1% (vN), which for its part has only a minute effect on PDE activity.
# (§2) After preincubation at 37° C. for 5 minutes, the reaction was started by addition of the substrate (CAMP or cGMP). The samples were incubated at 37° C. for a further 15 min. The reaction was terminated by addition of 50 μl 0.2 N HCl. After cooling on ice for 10 minutes and addition of 25 μg 5′-nucleotidase (snake venom from Crotalus atrox), the mixture was again incubated at 37° C. for 10 min and the samples were then applied to QAE Sephadex A-25 columns (sample volume 1 ml). The columns were eluted with 2 ml of 30 mM ammonium formate (pH 6.0). The radioactivity of the eluate was measured and corrected by the corresponding blank values (measured in the presence of denatured protein); the blank values were less than 5% of the total radioactivity. In no case did the proportion of hydrolyzed nucleotide exceed 30% of the original substrate concentration.
# PDE3 (cGMP-inhibited) was investigated in homogenates of human platelets (see Schudt et al., Biochem Pharmacol 1991: 42, 153-162) using CAMP or cGMP as substrate.
# (§3) The IC50 values were determined from the concentration-inhibition curves by nonlinear regression.
# [2] = target: PDE4 (cAMP-specific), cytosol of human polymorphonuclear leukocytes (PMNL); test: Inhibition of PDE isoenzymes: PDE4; assay type: biochemical; conditions: cAMP as substrate, motapizone (1 μM) present
# Procedure: as §1, §2
# PDE4 (cAMP-specific) was investigated in the cytosol of human polymorphonuclear leukocytes (PMNL) [isolated from leukocyte concentrates, see Schudt et al., Arch Pharmacol 1991: 344, 682-690] using CAMP as substrate. The PDE3 inhibitor motapizone (1 μM) was used to suppress the PDE3 activity emanating from contaminated platelets.
# as §3
# [3] = homogenates of human platelets, cAMP or cGMP as substrate, read-out: PDE3 [−log IC50, mol/l] (converted)
# T1 sequence (Q14432 whole entry): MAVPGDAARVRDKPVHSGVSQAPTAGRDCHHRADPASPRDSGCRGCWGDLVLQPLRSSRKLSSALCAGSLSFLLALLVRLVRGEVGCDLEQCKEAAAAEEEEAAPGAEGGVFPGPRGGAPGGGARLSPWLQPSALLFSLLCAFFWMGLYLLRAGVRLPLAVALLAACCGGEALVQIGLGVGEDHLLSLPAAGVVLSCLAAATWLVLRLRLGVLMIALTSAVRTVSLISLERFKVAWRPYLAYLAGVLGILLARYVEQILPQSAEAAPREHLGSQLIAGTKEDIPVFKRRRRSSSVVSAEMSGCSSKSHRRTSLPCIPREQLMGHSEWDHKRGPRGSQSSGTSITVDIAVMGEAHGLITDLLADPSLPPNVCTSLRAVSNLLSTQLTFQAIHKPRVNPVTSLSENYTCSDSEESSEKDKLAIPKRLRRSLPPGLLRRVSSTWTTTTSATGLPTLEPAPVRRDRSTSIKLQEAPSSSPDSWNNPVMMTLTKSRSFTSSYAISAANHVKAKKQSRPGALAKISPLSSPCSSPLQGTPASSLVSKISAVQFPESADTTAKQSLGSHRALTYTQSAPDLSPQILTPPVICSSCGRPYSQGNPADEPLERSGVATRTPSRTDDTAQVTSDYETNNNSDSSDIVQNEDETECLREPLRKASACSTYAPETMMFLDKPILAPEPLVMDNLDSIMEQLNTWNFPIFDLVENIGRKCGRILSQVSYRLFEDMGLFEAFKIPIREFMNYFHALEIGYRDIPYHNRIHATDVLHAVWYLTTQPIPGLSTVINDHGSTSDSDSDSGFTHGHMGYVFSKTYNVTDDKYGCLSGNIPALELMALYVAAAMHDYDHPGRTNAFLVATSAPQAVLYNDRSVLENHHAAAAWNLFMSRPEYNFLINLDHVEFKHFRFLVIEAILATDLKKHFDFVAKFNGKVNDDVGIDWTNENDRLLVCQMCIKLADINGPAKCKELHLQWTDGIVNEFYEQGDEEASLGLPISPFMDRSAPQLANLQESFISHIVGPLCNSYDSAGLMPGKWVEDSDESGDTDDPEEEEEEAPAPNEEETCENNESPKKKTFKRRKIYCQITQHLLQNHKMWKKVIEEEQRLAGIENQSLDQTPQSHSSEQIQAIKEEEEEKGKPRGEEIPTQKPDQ
Compound,"IC50 [1, 3] [nM]","PDE4 [−log IC50, mol/l] [2]",IC50 [1] [nM]
"CCOc1cc2c(cc1OC)C(c1ccc(C(=O)N(C(C)C)C(C)CCOC(=O)c3ccccc3)cc1)=N[C@@H]1CCN(C)C[C@H]21 (stereo partly drawn) [Compound 6, Benzoic acid 3-({1-[4-((4aR,10bS)-9-ethoxy-8-methoxy-2-methyl-1,2,3,4,4a,10b-hexahydro-benzo[c][1,6]naphthyridin-6-yl)-phenyl]-methanoyl}-isopropyl-amino)-butyl ester]",100,"9.2 −log IC50, mol/l",–
CCOc1cc2c(cc1OC)C(c1ccc(C(=O)N(C(C)C)[C@@H](C)CO)cc1)=N[C@@H]1CCN(C)C[C@H]21 [Compound 11],79.4,"8.9 −log IC50, mol/l",–
"CCOc1cc2c(cc1OC)C(c1ccc(C(=O)N(C(C)C)[C@@H](C)COC(=O)c3ccc(OC)c(OC)c3)cc1)=N[C@@H]1CCN(C)C[C@H]21 [Compound 3, 3,4-Dimethoxy-benzoic acid(S)2-({1-[4-((4aR,10bS)-9-ethoxy-8-methoxy-2-methyl-1,2,3,4,4a,10b-hexahdro-benzo[c][1,6]naphthyridin-6-yl)-phenyl]-methanoyl}-isopropyl-amino)-propyl ester]",31.6,"9.4 −log IC50, mol/l",–
CCOc1cc2c(cc1OC)C(c1ccc(C(=O)N(C(C)C)[C@@H](C)COC(=O)c3ccccc3)cc1)=N[C@@H]1CCN(C)C[C@H]21 [Compound 2],25.1,"9 −log IC50, mol/l",–
"CCOc1cc2c(cc1OC)C(c1ccc(C(=O)N(C(C)C)[C@@H](C)COC(C)=O)cc1)=N[C@@H]1CCN(C)C[C@H]21 [Compound 5, Acetic acid (S-2-({1-[4-((4aR,10bS)-9-ethoxy-8-methoxy-2-methyl-1,2,3,4,4a,10b-hexahydro-benzo[c][1,6]naphthyyrdin-6-yl)-phenyl]-methanoyl}-isopropyl-amino)-propyl esterdihydrochloride]",79.4,"9.2 −log IC50, mol/l",–
"CCOc1cc2c(cc1OC)C(c1ccc(C(=O)N(C(C)C)[C@@H](C)COC(=O)Cc3ccccc3)cc1)=N[C@@H]1CCN(C)C[C@H]21 [Compound 1, Phenyl-acetic acid (S)-2-({1-[4-((4aR,10bS)-9-ethoxy-8-methoxy-2-methyl-1,2,3,4a,10b-hexahydro-benzo[c][1,6]naphthyridin-6-yl)-phenyl]-methanoyl}-isopropyl-amino)-propyl ester]",–,"9.8 −log IC50, mol/l",50.1
"CCOc1cc2c(cc1OC)C(c1ccc(C(=O)N(C(C)C)C(C)CCOC(=O)Cc3ccc(OC)c(OC)c3)cc1)=N[C@@H]1CCN(C)C[C@H]21 (stereo partly drawn) [Compound 8, (3.4-Dimethoxy-phenyl)-acetic acid 3-({1-[4-((4aR,10bS)-9-ethoxy-8-methoxy-2-methyl-1,2,3,4,4a.10b-hexahydro-benzo[c][1,6]naphthyridin-6-yl)-phenyl]-methanoyl}-isopropyl-amino)-butyl ester]",50.1,"9.6 −log IC50, mol/l",–
"CCOc1cc2c(cc1OC)C(c1ccc(C(=O)N(C(C)C)C(C)CCOC(=O)Cc3ccccc3)cc1)=N[C@@H]1CCN(C)C[C@H]21 (stereo partly drawn) [Compound 7, Phenyl-acetic acid 3-({1-[4((4aR,10bS)-9-ethoxy-8-methoxy-2-methyl-1,2,3,4,4a,10b-hexahydro-benzo[c][1,6]naphthyridin-6-yl)-phenyl]-methanoyl}-isopropyl-amino)-butyl ester]",–,"9.6 −log IC50, mol/l",31.6
CCOc1cc2c(cc1OC)C(c1ccc(C(=O)N(C(C)C)[C@@H](C)COC(=O)c3cc(OC)cc(OC)c3)cc1)=N[C@@H]1CCN(C)C[C@H]21 [Compound 4],39.8,"9.3 −log IC50, mol/l",–
CCOc1cc2c(cc1OC)C(c1ccc(C(=O)N(C(C)C)[C@H](C)CO)cc1)=N[C@@H]1CCN(C)C[C@H]21 [Compound 12],79.4,"8.8 −log IC50, mol/l",–
